Assays:
physchem [1] = assay: physchem
Description: Acid dissociation constant, pKa of the compound by UV spectral absorption analysis

Estrogen receptor [2] = molecular target: T1, Estrogen receptor (Homo sapiens, UniProt P03372); conditions: hek293
T1 sequence (P03372 whole entry): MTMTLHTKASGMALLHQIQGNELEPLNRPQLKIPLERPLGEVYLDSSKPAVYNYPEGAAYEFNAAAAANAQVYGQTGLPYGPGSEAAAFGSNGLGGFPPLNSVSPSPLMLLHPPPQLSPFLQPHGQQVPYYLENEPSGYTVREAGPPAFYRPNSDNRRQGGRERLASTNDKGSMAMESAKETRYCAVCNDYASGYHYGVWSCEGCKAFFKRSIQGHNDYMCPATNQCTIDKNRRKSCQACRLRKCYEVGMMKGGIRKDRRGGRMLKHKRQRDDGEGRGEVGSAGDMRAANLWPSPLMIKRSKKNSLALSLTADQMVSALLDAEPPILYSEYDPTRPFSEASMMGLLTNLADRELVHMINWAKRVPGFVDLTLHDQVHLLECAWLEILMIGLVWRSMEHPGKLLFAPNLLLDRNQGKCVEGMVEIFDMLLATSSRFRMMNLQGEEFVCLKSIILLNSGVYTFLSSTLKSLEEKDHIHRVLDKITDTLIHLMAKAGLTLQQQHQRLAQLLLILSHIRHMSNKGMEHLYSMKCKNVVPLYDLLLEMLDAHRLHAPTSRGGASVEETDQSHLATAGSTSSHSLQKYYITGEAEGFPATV
Description: (§1) Antagonist activity at human Gal4-fused ERalpha expressed in HEK293 cells assessed as inhibition of E2-induced transcriptional activation after 24 hrs by luciferase/beta-galactosidase reporter gene assay

physchem [3] = conditions: 1-octanol/water
Description: 1-Octanol-water partition coefficient, log P of the compound by HPLC analysis

Estrogen receptor [4] = molecular target: T1, Estrogen receptor; conditions: hek293; remark: listed apart in the source
Description: (§2) Agonist activity at human Gal4-fused ERalpha expressed in HEK293 cells assessed as transcriptional activation after 24 hrs by luciferase/beta-galactosidase reporter gene assay

Estrogen receptor beta [5] = molecular target: T2, Estrogen receptor beta (Homo sapiens, UniProt Q92731); conditions: hek293
Description: (§3) Antagonist activity at human Gal4-fused ERbeta expressed in HEK293 cells assessed as inhibition of E2-induced transcriptional activation after 24 hrs by luciferase/beta-galactosidase reporter gene assay

Estrogen receptor beta [6] = molecular target: T2, Estrogen receptor beta; assay: Agonist activity at human Gal4-fused ERbeta expressed in HEK293 cells assessed as transcriptional activation at 30 uM after 24 hrs by luciferase/beta-galactosidase reporter gene assay relative to estradiol; type: cell-based
Estrogen receptor beta [7] = molecular target: T2, Estrogen receptor beta
Description: as §3

Estrogen receptor [8] = molecular target: T1, Estrogen receptor
Description: as §1

Estrogen receptor [9] = molecular target: T1, Estrogen receptor; remark: listed apart in the source
Description: as §2

Estrogen receptor beta [10] = molecular target: T2, Estrogen receptor beta; assay: Antagonist activity at human Gal4-fused ERbeta expressed in HEK293 cells assessed as inhibition of E2-induced transcriptional activation at 30 uM after 24 hrs by luciferase/beta-galactosidase reporter gene assay relative to control; type: cell-based
[11] = molecular target: T3, Estrogen receptor (Homo sapiens) (UniProt P03372); assay: Agonist activity at human Gal4-fused ERalpha expressed in HEK293 cells assessed as transcriptional activation at 30 uM after 24 hrs by luciferase/beta-galactosidase reporter gene assay relative to estradiol; type: cell-based
T3 sequence (whole entry): T1 sequence (P03372 whole entry)

T2 sequence (Q92731 whole entry, the tested form may be a part): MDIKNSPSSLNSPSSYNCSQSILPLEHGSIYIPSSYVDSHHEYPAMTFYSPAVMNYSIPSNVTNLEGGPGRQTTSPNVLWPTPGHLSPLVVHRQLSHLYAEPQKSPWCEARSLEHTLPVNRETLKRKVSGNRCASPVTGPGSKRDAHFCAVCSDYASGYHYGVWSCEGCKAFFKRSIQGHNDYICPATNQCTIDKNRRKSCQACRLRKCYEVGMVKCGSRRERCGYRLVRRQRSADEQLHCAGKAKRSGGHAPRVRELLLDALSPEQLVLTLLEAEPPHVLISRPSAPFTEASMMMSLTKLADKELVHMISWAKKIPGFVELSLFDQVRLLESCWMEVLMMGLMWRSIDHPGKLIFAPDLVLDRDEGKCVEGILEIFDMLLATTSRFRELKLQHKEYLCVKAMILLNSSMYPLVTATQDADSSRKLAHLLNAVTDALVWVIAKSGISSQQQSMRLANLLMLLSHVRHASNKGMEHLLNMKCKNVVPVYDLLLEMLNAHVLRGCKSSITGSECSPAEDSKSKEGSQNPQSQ

Q: Which pKa (physchem [1]) does the source give for CP(c1ccccc1)c1ccc(O)cc1 (stereo unspecified) here?
A: Its pKa is 9.49.

Q: What about the IC50 (Estrogen receptor [2]) of the same molecule?
A: The IC50 was “Not Active”.

Q: What about the logP (physchem [3]) of the same molecule?
A: The logP was 3.67.

Q: And the EC50 (Estrogen receptor [4])?
A: Its EC50 is “Not Active”.

Q: And the IC50 (Estrogen receptor beta [5])?
A: Its IC50 is “Not Active”.

Q: Which Activity (Estrogen receptor beta [6]) does the source give for B.CP(c1ccccc1)c1ccc(O)cc1 (stereo unspecified) [listing 1 of 2 here] here?
A: The Activity was 16%.

Q: With C[Si](C)(c1ccccc1)c1ccc(O)cc1 as the molecule, how does the pKa (physchem [1]) read?
A: The pKa was 10.2.

Q: What about the Activity (Estrogen receptor beta [6]) of the same molecule?
A: The Activity was 20%.

Q: What about the IC50 (Estrogen receptor beta [7]) of the same molecule?
A: Its IC50 is 5 µM.

Q: What about the logP (physchem [3]) of the same molecule?
A: Its logP is 4.8.

Q: What about the IC50 (Estrogen receptor [8]) of the same molecule?
A: Its IC50 is 13 µM.

Q: And the EC50 (Estrogen receptor [9])?
A: The EC50 was greater than 30 µM.

Q: For O=P(c1ccccc1)(c1ccccc1)c1ccc(O)cc1, which pKa (physchem [1]) is on record?
A: The pKa was 8.51.

Q: What about the IC50 (Estrogen receptor [2]) of the same molecule?
A: The IC50 was “Not Active”.

Q: What about the logP (physchem [3]) of the same molecule?
A: Its logP is 3.22.

Q: And the EC50 (Estrogen receptor [4])?
A: Its EC50 is “Not Active”.

Q: What about the IC50 (Estrogen receptor beta [5]) of the same molecule?
A: Its IC50 is “Not Active”.

Q: For CP(=[Se])(c1ccccc1)c1ccc(O)cc1 (stereo unspecified), which pKa (physchem [1]) is on record?
A: The pKa was 8.64.

Q: And the IC50 (Estrogen receptor [2])?
A: The IC50 was “Not Active”.

Q: And the Activity (Estrogen receptor beta [6])?
A: The Activity was 24%.

Q: And the logP (physchem [3])?
A: The logP was 3.27.

Q: What about the EC50 (Estrogen receptor [4]) of the same molecule?
A: The EC50 was “Not Active”.

Q: What about the inhibition (Estrogen receptor beta [10]) of the same molecule?
A: Its inhibition is 30%.

Q: With CP(=S)(c1ccccc1)c1ccc(O)cc1 (stereo unspecified) as the molecule, how does the pKa (physchem [1]) read?
A: The pKa was 8.65.

Q: What about the IC50 (Estrogen receptor [2]) of the same molecule?
A: Its IC50 is “Not Active”.

Q: And the Activity (Estrogen receptor beta [6])?
A: The Activity was 24%.

Q: What about the logP (physchem [3]) of the same molecule?
A: Its logP is 2.69.

Q: And the Activity [11]?
A: The Activity was 24%.

Q: And the IC50 (Estrogen receptor beta [5])?
A: The IC50 was “Not Active”.

Q: With Oc1ccc(P(=S)(c2ccccc2)c2ccccc2)cc1 as the molecule, how does the pKa (physchem [1]) read?
A: Its pKa is 8.6.

Q: What about the IC50 (Estrogen receptor beta [7]) of the same molecule?
A: Its IC50 is 13 µM.

Q: And the logP (physchem [3])?
A: Its logP is 4.08.

Q: What about the EC50 (Estrogen receptor [4]) of the same molecule?
A: The EC50 was “Not Active”.

Q: What about the IC50 (Estrogen receptor [8]) of the same molecule?
A: Its IC50 is 20 µM.

Q: Which pKa (physchem [1]) does the source give for CP(=O)(c1ccccc1)c1ccc(O)cc1 (stereo unspecified) here?
A: The pKa was 8.63.

Q: What about the IC50 (Estrogen receptor [2]) of the same molecule?
A: Its IC50 is “Not Active”.

Q: And the Activity (Estrogen receptor beta [6])?
A: Its Activity is 36%.

Q: What about the logP (physchem [3]) of the same molecule?
A: The logP was 1.88.

Q: And the IC50 (Estrogen receptor beta [5])?
A: Its IC50 is “Not Active”.

Q: What about the EC50 (Estrogen receptor [9]) of the same molecule?
A: The EC50 was 19 µM.

Q: Which results are given for B.Oc1ccc(P(c2ccccc2)c2ccccc2)cc1?
A: pKa (physchem [1]): 8.81; IC50 (Estrogen receptor beta [7]): 2 µM; logP (physchem [3]): 4.96; EC50 (Estrogen receptor [4]): Not Active; IC50 (Estrogen receptor [8]): 12 µM

Q: With B.CP(c1ccccc1)c1ccc(O)cc1 (stereo unspecified) [listing 2 of 2 here] as the molecule, how does the pKa (physchem [1]) read?
A: Its pKa is 8.83.

Q: And the IC50 (Estrogen receptor beta [7])?
A: Its IC50 is 2.5 µM.

Q: And the logP (physchem [3])?
A: Its logP is 3.38.

Q: What about the EC50 (Estrogen receptor [4]) of the same molecule?
A: Its EC50 is “Not Active”.

Q: And the IC50 (Estrogen receptor [8])?
A: The IC50 was 9.8 µM.

Q: Which pKa (physchem [1]) does the source give for Oc1ccc(P(c2ccccc2)c2ccccc2)cc1 here?
A: The pKa was 9.48.

Q: And the IC50 (Estrogen receptor [2])?
A: Its IC50 is “Not Active”.

Q: And the logP (physchem [3])?
A: Its logP is 5.06.

Q: What about the EC50 (Estrogen receptor [4]) of the same molecule?
A: Its EC50 is “Not Active”.

Q: And the IC50 (Estrogen receptor beta [5])?
A: The IC50 was “Not Active”.

Q: What does the source list for CC(C)(c1ccccc1)c1ccc(O)cc1?
A: pKa (physchem [1]): 10.6; Activity (Estrogen receptor beta [6]): 38%; IC50 (Estrogen receptor beta [7]): 13 µM; logP (physchem [3]): 4.2; IC50 (Estrogen receptor [8]): 24 µM; EC50 (Estrogen receptor [9]): 4.4 µM
